In ChEMBL document CHEMBL1129277, “Nonpeptidal P2 ligands for HIV protease inhibitors: structure-based design, synthesis, and biological evaluation” (J Med Chem, 1996) one finds IC50, IC95 and solubility data, which are given here for 19 molecules.

Each structure is given as a SMILES string. ≈ marks a conversion by molar mass, not a printed value.

Data set [1] has as its system Human immunodeficiency virus 1. The data set can be described thus: Inhibition of HIV-1 replication in infected MT-4 human T-lymphoid cells. The format is functional, organism-based. To be noted: Human immunodeficiency virus 1, T-lymphoid.
For data set [2], the target named is Human immunodeficiency virus type 1 protease (Human immunodeficiency virus 1) (UniProt Q72874). The data set can be described thus: Inhibitory activity against HIV-1 protease enzyme.
Data set [3] in a line: Aqueous solubility in phosphate buffer of pH 7.4. Format: physicochemical.

As for `CC(C)(C)NC(=O)[C@@H]1C[C@@H]2CCCC[C@@H]2CN1C[C@@H](O)[C@H](Cc1ccccc1)NC(=O)O[C@@H]1CCOC1`, the IC50 in data set [1] was determined as 694 nM. Further, the IC95 in data set [2] was above 800 nM.

On to `COC[C@@H]1SCC[C@@H]1OC(=O)N[C@@H](Cc1ccccc1)[C@H](O)CN1C[C@H]2CCCC[C@H]2C[C@H]1C(=O)NC(C)(C)C`, for which, in data set [1], the IC50 worked out at 19.7 nM.

`CC(C)(C)NC(=O)[C@@H]1C[C@@H]2CCCC[C@@H]2CN1C[C@@H](O)[C@H](Cc1ccccc1)NC(=O)O[C@H]1CO[C@H]2OCCC[C@H]21` registered a concentration for half-maximal inhibition (IC50) in data set [1] of 4.2 nM. The molecule further came in with an IC95 in data set [2] of 100 nM.

Take `CC(C)(C)NC(=O)[C@@H]1C[C@@H]2CCCC[C@@H]2CN1C[C@@H](O)[C@H](Cc1ccccc1)NC(=O)O[C@H]1CO[C@H]2OCC[C@H]21`: the IC50 in data set [1] is 1.8 nM. Also, in data set [3], the concentration in solution (solubility) came to 235 µg/mL (≈ 421 µM).

Take `CC(C)(C)NC(=O)[C@@H]1C[C@@H]2CCCC[C@@H]2CN1C[C@@H](O)[C@H](Cc1ccccc1)NC(=O)O[C@H]1CCS(=O)(=O)C1`: the IC50 in data set [1] turned out to be 76 nM. In data set [2], this molecule yielded a 95% effect concentration (IC95) of 364 nM.

In turn, `CC(C)(C)NC(=O)[C@@H]1C[C@@H]2CCCC[C@@H]2CN1C[C@@H](O)[C@H](Cc1ccccc1)NC(=O)O[C@H]1CCSC1` yielded an IC50 in data set [1] of 132 nM.

With `CC(C)(C)NC(=O)[C@@H]1C[C@@H]2CCCC[C@@H]2CN1C[C@@H](O)[C@H](Cc1ccccc1)NC(=O)O[C@H]1CCOC1`, it took 132 nM to reach half-maximal inhibition in data set [1] (IC50). In addition, the concentration in solution in data set [3] (solubility) was 150 µg/mL (≈ 291 µM).

In data set [1], `CC(C)(C)NC(=O)[C@@H]1C[C@@H]2CCCC[C@@H]2CN1C[C@@H](O)[C@H](Cc1ccccc1)NC(=O)O[C@]12CCO[C@H]1OCC2` showed an IC50 of 410 nM. In data set [2], this molecule gave an IC95 above 200 nM.

`COC[C@H]1[C@@H](OC(=O)N[C@@H](Cc2ccccc2)[C@H](O)CN2C[C@H]3CCCC[C@H]3C[C@H]2C(=O)NC(C)(C)C)CCS1(=O)=O` returned an IC50 in data set [1] of 23.8 nM.

Take `CC(C)(C)NC(=O)[C@@H]1C[C@@H]2CCCC[C@@H]2CN1C[C@@H](O)[C@H](Cc1ccccc1)NC(=O)[C@H](CC(N)=O)NC(=O)c1ccc2ccccc2n1` [SAQUINAVIR]: in data set [3], the solubility is 10 µg/mL (≈ 14.9 µM).

`CC(C)(C)NC(=O)[C@@H]1C[C@@H]2CCCC[C@@H]2CN1C[C@@H](O)[C@H](Cc1ccccc1)NC(=O)O[C@H]1CO[C@@]2(C)OCC[C@@H]12`: half-maximal inhibition in data set [1] (IC50) required 18.1 nM. Further, the IC95 in data set [2] was above 200 nM.

In data set [1], `CC(C)(C)NC(=O)[C@@H]1C[C@@H]2CCCC[C@@H]2CN1C[C@@H](O)[C@H](Cc1ccccc1)NC(=O)O[C@@H]1CO[C@@H]2OCCC[C@@H]21` registered a concentration for half-maximal inhibition (IC50) of 1.2 nM. Also, in data set [2], it took 50 nM to reach the 95% level (IC95). In data set [3], this molecule yielded a solubility of 107 µg/mL (≈ 187 µM).

In data set [1], `CC(C)(C)NC(=O)[C@@H]1C[C@@H]2CCCC[C@@H]2CN1C[C@@H](O)[C@H](Cc1ccccc1)NC(=O)O[C@@H]1CO[C@@H]2CCO[C@@H]21` gave an IC50 above 3000 nM. Also, the IC95 in data set [2] was above 200 nM.

In data set [1], `CC(C)(C)NC(=O)[C@@H]1C[C@@H]2CCCC[C@@H]2CN1C[C@@H](O)[C@H](Cc1ccccc1)NC(=O)O[C@H]1CO[C@H]2COC[C@H]21` returned an IC50 of 1700 nM.

As to `C[C@H]1C[C@@H]2[C@@H](OC[C@@H]2OC(=O)N[C@@H](Cc2ccccc2)[C@H](O)CN2C[C@H]3CCCC[C@H]3C[C@H]2C(=O)NC(C)(C)C)O1`, the 50% inhibitory concentration (IC50) in data set [1] amounted to 27.1 nM. Besides, it took 200 nM to reach the 95% level in data set [2] (IC95).

As to `C[C@@H]1C[C@@H]2[C@@H](OC[C@@H]2OC(=O)N[C@@H](Cc2ccccc2)[C@H](O)CN2C[C@H]3CCCC[C@H]3C[C@H]2C(=O)NC(C)(C)C)O1`, the half-maximal inhibitory concentration (IC50) in data set [1] came out at 4.1 nM. For the same molecule, in data set [2], the concentration for an effect of 95% (IC95) is 200 nM.

The molecule `CC(C)(C)NC(=O)[C@@H]1C[C@@H]2CCCC[C@@H]2CN1C[C@@H](O)[C@H](Cc1ccccc1)NC(=O)O[C@@H]1CO[C@@H]2OCC[C@@H]21` came in with a half-inhibitory concentration (IC50) in data set [1] of 6.4 nM. The molecule also came in with a solubility in data set [3] of 130 µg/mL (≈ 233 µM).

Turning to `CC(C)(C)NC(=O)[C@@H]1C[C@@H]2CCCC[C@@H]2CN1C[C@@H](O)[C@H](Cc1ccccc1)NC(=O)O[C@H]1CC[C@H]2OCC[C@@H]12`, the midpoint of inhibition in data set [1], the IC50, lay at 17 nM.

In data set [1], `CC(C)(C)NC(=O)[C@@H]1C[C@@H]2CCCC[C@@H]2CN1C[C@@H](O)[C@H](Cc1ccccc1)NC(=O)O[C@H]1CO[C@H]2CCC[C@H]21` came in with a half-inhibitory concentration (IC50) of 190 nM.

One may read the IC50 as the midpoint of a concentration-inhibition curve. Usually IC95 stands for the concentration at which the effect reaches the 95% level. A low value points to greater potency. What is called solubility is the dissolved amount per volume that the medium holds.
